Assay: in vitro
Conditions: human, hela cells, % viability

First: Cc1cnccc1-c1c[nH]nc1C1CCCN1C(=O)c1ccccc1 (centres unmarked) [CBK285499]
Second: O=C(Cc1ccccc1)N1CCCC1c1n[nH]cc1-c1ccncc1 (centres unmarked) [CBK283435]
The viability at 28.5 h, 10 µM of the first is higher: 104% for the first, 85.7% for the second.

First: O=C1NC2(CCN(C(=O)c3ccccc3F)CC2)Oc2ccccc21 [CBK283997]
Second: O=C(O)c1ccccc1-c1nc(-c2ccccc2F)no1 [CBK268022]
The viability at 28.5 h, 10 µM of the first is lower: 81.9% for the first, 100% for the second.

First: COc1cccc(CN2CC[C@H]3[C@@H](C2)[C@H](c2ccsc2)CN3C(=O)c2ccccc2)c1 [CBK285616]
Second: COc1cccc(CN2CCCC(NC(=O)c3ccccc3Cl)C2)c1 (centres unmarked) [CBK306774]
The viability at 28.5 h, 10 µM of the first is lower: 97.5% for the first, 117% for the second.

Compared with `COc1ccccc1C1OC(=O)CC1C(=O)N1CCN(c2ccc(C(F)(F)F)cc2)CC1` (centres unmarked) [CBK091313], `COc1ccc(Cl)cc1N1CCN(C/C=C/c2ccccc2)CC1` [CBK126415] is lower in viability at 28.5 h, 10 µM: 111% for the first, 90.3% for the second.

First: O=C1NC[C@@H](CCC(=O)N2CCCCC2)N2C[C@@H](NS(=O)(=O)c3ccccc3)C[C@@H]12 [CBK289012]
Second: CCC(=O)N1CCCCC(NS(=O)(=O)c2ccc(-n3cccn3)cc2)C1 (centres unmarked) [CBK307398]
The viability at 28.5 h, 10 µM of the first is higher: 92.9% for the first, 82.5% for the second.

First: CC(=O)c1ccc(-c2nccnc2N(C)Cc2ccccc2)s1 [CBK037504]
Second: CC(C)C(=O)Nc1cc2cccnc2c(-c2ccccc2)n1 [CBK081287]
The viability at 28.5 h, 10 µM of the first is higher: 112% for the first, 92.2% for the second.

First: CC(C)S(=O)(=O)N1CCC(C(=O)NC(c2ccccc2)c2ccc3ccccc3n2)CC1 (centres unmarked) [CBK059676]
Second: Cn1cnc(S(=O)(=O)N2CCC(C(=O)NC(c3ccccn3)c3cccs3)CC2)c1 (centres unmarked) [CBK060131]
The viability at 28.5 h, 10 µM of the first is lower: 94.1% for the first, 105% for the second.

First: O=C(NCc1ccccc1)NC(=O)C1CCN(CCCOc2cccc3ccccc23)CC1 [CBK034856]
Second: CC(=O)N1CC(C(=O)Nc2ccccc2Cc2ccccc2)Oc2ccccc21 (centres unmarked) [CBK297525]
The viability at 28.5 h, 10 µM of the first is lower: 84.6% for the first, 88.6% for the second.

Going from `CCOc1ccc(/C=C2\SC(=O)NC2=S)cc1` [CBK027996] to `CCOC(=O)c1c(C)n(-c2ccc(OC)cc2)c2ccc(O)c(CN(C)C)c12` [CBK261609C], the viability at 28.5 h, 10 µM falls from 90.9% to 88%.

First: COc1ccc(-c2cnc(NCC3CC3)c(C(=O)N3CCN(C)CC3)c2)cc1 [CBK076327]
Second: COc1cccc(C(=O)N2CCCC(c3cc4cnccc4[nH]3)C2)c1 (centres unmarked) [CBK285417]
The viability at 28.5 h, 10 µM of the first is lower: 96.6% for the first, 104% for the second.

Compared with `NC(=O)C1CCN([C@H]2[C@@H]3OC[C@@H](O3)[C@@H](NCc3ccc(F)cc3)[C@@H]2O)CC1` [CBK288830], `O=C(CN1CCC(c2ccccc2F)CC1)NCc1ccco1` [CBK283550] is lower in viability at 28.5 h, 10 µM: 91.2% for the first, 88.3% for the second.

Going from `C(=N\c1ccc(Cc2ccncc2)cc1)/c1ccc(/C=N/c2ccc(Cc3ccncc3)cc2)cc1` [CBK262137] to `CC(=O)Nc1ccccc1-c1nc2ccccc2nc1OCC(=O)c1ccc(Cl)cc1` [CBK266269], the viability at 28.5 h, 10 µM falls from 97% to 93.6%.

First: NS(=O)(=O)c1ccc(NC(=O)CN2CCN(c3ccc([N+](=O)[O-])cc3)CC2)cc1 [CBK266232]
Second: Cc1ccc(S(=O)(=O)Nc2ccc(C(=O)O)cc2)cc1 [CBK034060]
The viability at 28.5 h, 10 µM of the first is higher: 96.8% for the first, 85.3% for the second.

Compared with `CCn1ncc2c(C(=O)NC(C)COC)cc(-c3cccs3)nc21` (centres unmarked) [CBK304955], `COC(=O)CNC(=O)c1cc(-c2ccc(C)s2)nc2c1cnn2C(C)C` [CBK305040] is higher in viability at 28.5 h, 10 µM: 87.1% for the first, 99.5% for the second.

Going from `O=C(O)[C@@H]1CSC(c2ccc(C(F)(F)F)cc2)N1` (some centres unmarked) [CBK286921] to `COCCNC(=O)c1cc2n(n1)C(C(F)(F)F)CC(c1cccs1)N2` (centres unmarked) [CBK307614], the viability at 28.5 h, 10 µM rises from 87.7% to 113%.

Going from `CC1CC(C)CN(C(=O)Cn2c(-c3nonc3N)nc3ccccc32)C1` (centres unmarked) [CBK264694] to `COCCn1cc(C(=O)N2CCCC2c2cc(C)on2)c2ccccc21` (centres unmarked) [CBK305289], the viability at 28.5 h, 10 µM rises from 89.7% to 90.4%.

Compared with `CN1C(=O)COc2ccccc2C/C=C/C[C@@H]2[C@H]1CCCN2C(=O)Cn1ccc(=O)[nH]c1=O` [CBK292093], `CCC1CCCCN1CC(=O)N1CCCC1c1nc2ccccc2[nH]1` (centres unmarked) [CBK282695] is lower in viability at 28.5 h, 10 µM: 102% for the first, 93.5% for the second.

First: N#CCCN(C(=O)Nc1ccccc1Cl)C1CCCCC1 [CBK156366]
Second: NC(=O)CCNC(=O)C1(c2ccccc2)CCCC1 [CBK160929]
The viability at 28.5 h, 10 µM of the first is lower: 86.8% for the first, 104% for the second.

Going from `O=C(c1ccco1)N1CCN(c2cc(-c3ccccc3Oc3ccccc3)ncn2)CC1` [CBK037817] to `COc1cccc(NC(=O)CSc2nnc(-c3ccccc3O)n2-c2ccccc2)c1` [CBK268343], the viability at 28.5 h, 10 µM rises from 96.8% to 108%.

Compared with `COc1ccccc1OCC(=O)N1CCNC1=O` [CBK288201], `COc1cc(C(=O)N2CCCC3(CCN(C(=O)Cc4c[nH]c5ccccc45)C3)C2)cc(OC)c1OC` (centres unmarked) [CBK131601] is higher in viability at 28.5 h, 10 µM: 93.8% for the first, 96% for the second.

Going from `CN(C)c1ccc(CC(=O)N2CCc3ccccc3C2)cc1` [CBK200340] to `Cc1cc(C)nc(Nc2cccc(C3CCCN3C(=O)CCOc3ccccc3C)n2)n1` (centres unmarked) [CBK286496], the viability at 28.5 h, 10 µM falls from 93.7% to 90.7%.

First: N#CCCN(CCc1ccccc1)S(=O)(=O)c1cccc2nsnc12 [CBK261138]
Second: OC1(Cn2cnc3ccccc32)CCN(CCc2ccccc2)CC1 [CBK284789]
The viability at 28.5 h, 10 µM of the first is higher: 104% for the first, 100% for the second.

Going from `Cc1nccn1CC1(O)CCN(CC2=CCC3CC2C3(C)C)CC1` (centres unmarked) [CBK284981] to `Cn1nc(-c2ccccc2)cc1[C@H]1CN2CC[C@H]1C[C@@H]2CNC(=O)N1CCOCC1` [CBK289094], the viability at 28.5 h, 10 µM rises from 94.6% to 113%.

Going from `COc1ccnc(Sc2ccc(Cl)cc2)c1C#N` [CBK018571] to `COc1cc(CNc2nn[nH]n2)ccc1OCc1ccc(F)cc1Cl` [CBK269536], the viability at 28.5 h, 10 µM falls from 92.2% to 90.6%.

Compared with `Cn1c(=O)oc2cc(Br)ccc21` [CBK027375], `CCCc1nn(Cc2ccccn2)c(=O)c2cc3ccsc3n12` [CBK284229] is lower in viability at 28.5 h, 10 µM: 108% for the first, 61.1% for the second.

Compared with `Cc1ccc(C#N)c(S(=O)(=O)Nc2cc(N3C[C@@H](C)N[C@@H](C)C3)c3occc3c2)c1` [CBK034756C], `COc1ccccc1-c1cc2nc(C)cc(NCC3CCCO3)n2n1` (centres unmarked) [CBK304277] is higher in viability at 28.5 h, 10 µM: 89.7% for the first, 96.5% for the second.

First: CCCc1cc(=O)oc2cc(OCC(=O)OC(C)C)c(Cl)cc12 [CBK264459]
Second: CCN(CC)CCN1C(=O)C(O)=C(C(=O)c2ccc(C)o2)C1c1ccccn1 (centres unmarked) [CBK266584]
The viability at 28.5 h, 10 µM of the first is lower: 96.9% for the first, 109% for the second.

First: Cc1ccc2nc(-c3ccncc3)cc(C(=O)N3CCN(c4ncccn4)CC3)c2c1 [CBK267751]
Second: Cc1ccc2n1CCN(C(=O)c1cccc(-n3cnnc3)c1)C2C(C)C (centres unmarked) [CBK282444]
The viability at 28.5 h, 10 µM of the first is lower: 93% for the first, 105% for the second.

Going from `C=CCn1c(Cc2csc(NC(=O)c3cc4ccccc4o3)n2)n[nH]c1=S` [CBK295329] to `O=C(Cn1nc(C(=O)O)c2ccccc2c1=O)NCc1ccc(Cl)cc1Cl` [CBK295320], the viability at 28.5 h, 10 µM falls from 104% to 85.4%.

First: COCCCNC(=O)Cn1c(-c2ccc(F)cc2)cc2cccnc21 [CBK285385]
Second: Cc1cc(O)n2nc(CC(=O)NCCCn3ccnc3C(C)C)nc2n1 [CBK306876]
The viability at 28.5 h, 10 µM of the first is lower: 88.5% for the first, 91.5% for the second.

First: O=C1Nc2ccc(-c3ccc(Cl)cc3)cc2C(=O)N2CCN(C(=O)CO)C[C@H]12 [CBK289594]
Second: N#Cc1cccc(CN2CCCC3(CCN(C(=O)c4cc(F)c(F)cc4F)C3)C2)c1 (centres unmarked) [CBK131993]
The viability at 28.5 h, 10 µM of the first is lower: 96.1% for the first, 100% for the second.

First: NS(=O)(=O)c1ccc(Nc2nc3nonc3nc2Nc2ccc(S(N)(=O)=O)cc2)cc1 [CBK261110]
Second: CN(C)c1cccc(-c2cncc(Nc3cccc(C(F)(F)F)c3)n2)c1 [CBK065786]
The viability at 28.5 h, 10 µM of the first is lower: 97.5% for the first, 100% for the second.

Compared with `CC(C)NC(=O)C1CC2CCC1(C)C[C@]21NC(=O)c2ccccc2N1` (some centres unmarked) [CBK284444], `Cc1ccn(CCNC(=O)C2CCC(=O)N(CCc3ccccn3)C2)n1` (centres unmarked) [CBK306998] is higher in viability at 28.5 h, 10 µM: 88.7% for the first, 93.5% for the second.

First: CCc1csc(C2CN3CCCC3CO2)n1 (centres unmarked) [CBK304793]
Second: COc1cc(Cn2ncc(N3CCCCC3)cc2=O)cc(OC)c1 [CBK307662]
The viability at 28.5 h, 10 µM of the first is lower: 89.4% for the first, 97.1% for the second.

Going from `O=C(Nc1cc(Oc2cccnc2)cc([N+](=O)[O-])c1)c1nn2c(C(F)(F)F)cc(-c3cccs3)nc2c1Br` [CBK262535] to `CC(C(=O)Nc1ccc(F)c(F)c1)n1cc([N+](=O)[O-])cn1` (centres unmarked) [CBK268771], the viability at 28.5 h, 10 µM rises from 84.7% to 92.9%.

Compared with `c1ccc2c(c1)NC(c1ccncc1)n1nnnc1-2` (centres unmarked) [CBK288171], `O=C(O)C(O)C(O)c1nc2ccccc2[nH]1` (centres unmarked) [CBK260955] is higher in viability at 28.5 h, 10 µM: 82.5% for the first, 107% for the second.

First: OCCN1CCN(CC(O)COCC2COc3ccccc3O2)CC1 (centres unmarked) [CBK027374C]
Second: S=C(Nc1ccccc1)N(CCN1CCOCC1)Cc1cccc(Cl)c1 [CBK267975]
The viability at 28.5 h, 10 µM of the first is lower: 97.3% for the first, 103% for the second.

First: CCc1c(C)nc2c(C(=O)NCCSC)cnn2c1C [CBK162147]
Second: COC(=O)CNC(=O)c1ccncc1Br [CBK057760]
The viability at 28.5 h, 10 µM of the first is lower: 97.2% for the first, 101% for the second.

First: CC(CN(C)C(=O)c1c[nH]nn1)Oc1ccc(Cl)c(Cl)c1 (centres unmarked) [CBK306160]
Second: Nc1nnc(CSCc2ccc(Cl)cc2Cl)s1 [CBK263471]
The viability at 28.5 h, 10 µM of the first is lower: 87.5% for the first, 100% for the second.

Going from `O=C(Nc1ccccc1C(=O)N1CCOCC1)C1CCN(C(=O)c2ccco2)CC1` [CBK270272] to `O=C(CN1CCOCC1)N1CCC(Cn2cncn2)(C2CCCCC2)CC1` [CBK136803], the viability at 28.5 h, 10 µM falls from 105% to 95.7%.

Going from `COc1cc(CNc2cncc(-c3ccc4c(c3)OCO4)n2)cc(OC)c1OC` [CBK065922] to `O=C1CSC2(C(=O)N(Cc3cccc(C(F)(F)F)c3)c3ccccc32)N1c1ccccc1` (centres unmarked) [CBK092392], the viability at 28.5 h, 10 µM rises from 99.5% to 108%.

Going from `COC(=O)CCN(Cc1nnc(C2CC2)o1)C(C)C` [CBK304470] to `CN(C)/C=N/c1nc(=O)n([C@H]2CC(O)[C@@H](CO)O2)cc1/C=C/C(=O)NCCCCCCNC(=O)C(F)(F)F` (some centres unmarked) [CBK201330], the viability at 28.5 h, 10 µM rises from 84.6% to 97.1%.

Work on `O=C(O)c1[nH]c2ccccc2c1C(c1cc(Cl)cc([N+](=O)[O-])c1O)c1c(C(=O)O)[nH]c2ccccc12` [CBK267814] yielded a viability at 28.5 h, 10 µM of 95.6%.

Same assay, conditions: human, hela cells, % viability, bulk resorufin, single well

For `Cc1ccc2[nH]cc(CCN)c2c1` [CBK004365], the viability at 28.5 h, 10 µM was 103%.

From publication PMC12040169 (PLOS Biology, 2025)
